# Like-named read-outs stand apart in the source and are kept apart here.
# Assays:
# [1] = test system: Escherichia coli K-12 AG100, its Mar mutant AG112 and derived fluoroquinolone-resistant mutants (acrAB+); assay: MIC by broth microdilution, acrAB+ strains; assay type: cell-based
# [2] = test system: Escherichia coli K-12 AG100, its Mar mutant AG112 and derived fluoroquinolone-resistant mutants (acrAB+); assay: MIC by broth microdilution, acrAB+ strains; assay type: cell-based; details: for Ofx MIC: with AcrAB; for MIC: Escherichia coli
# Protocol: Selection of fluoroquinolone-resistant mutants. 1-AG100, 2°-AG100, 3*-AG100, 4*-AG100 and 1′-AG112, 2′-AG112, 3′-AG112 were sequential step mutants derived from AG 100 and AG112, respectively, on solid media. For each step, about 10^11 cells of an overnight culture were plated on several LB agar plates supplemented with increasing concentrations of OFL. Single colonies were further purified on OFL-supplemented agar plates. Mutant 2°-AG100 came out of one series, while mutants 3*- and 4*-AG100 came from a second series.
# (§1) Susceptibility testing. MICs of selected antimicrobial agents were determined by a standard broth microdilution procedure with cation-adjusted Mueller-Hinton broth (Becton Dickinson, Cockeysville, Md.) and an inoculum of 5×10^5 CFU/ml according to NCCLS performance and interpretive guidelines (NCCLS. 1997. Methods for dilution antimicrobial susceptibility. Tests for bacteria that grow aerobically—Fourth Edition; Approved Standard. NCCLS document M7-A4 (ISBN 1-56238-309-4). NCCLS, 940 West Valley Road, Suite 1400, Wayne, Pa. 19087). Antimicrobial agents on the commercially available microtiter plates (Merlin Diagnostics GmbH, Bornheim, Germany) included the FQs ciprofloxacin (CIP), enoxacin, fleroxacin, nor-flo-xacin, ofloxacin (OFL), pefloxacin, sparfloxacin (SPX), and trovafloxacin (TVA). They also included tetracycline (TET), chloramphenicol (CML), trimethoprim (TMP), cefoxitin (CFOX), cefaclor, cefixim and loracarbef. MICs of bile salts were determined by a broth macrodilution procedure: sodium cholate and sodium deoxycholate were serially diluted twofold in LB broth and tubes inoculated at 5×10^5 CFU/ml. MICs of both antibiotics and bile salts were determined twice in independent experiments with reproducible results.
# [3] = test system: Escherichia coli AG100, AG112 and derived fluoroquinolone-resistant mutants with ΔacrAB; assay: MIC by broth microdilution, AcrAB-deleted strains; assay type: cell-based; details: for Ofx MIC: AcrAB knocked out; for MIC: Escherichia coli
# Protocol: as §1
# P1 transduction. […] DNA sequencing.
# E. coli = details: cited from earlier work
# [4] = strain 1-AG100, acrAB+, read-out: MIC
# [5] = strain 1-AG112 (1′-AG112), acrAB+, read-out: MIC
# [6] = strain 2-AG100 (2°-AG100), acrAB+, read-out: MIC
# [7] = strain 2-AG112 (2′-AG112), acrAB+, read-out: MIC
# [8] = strain 3*-AG100, acrAB+, read-out: MIC
# [9] = strain 3-AG112 (3′-AG112), acrAB+, read-out: MIC
# [10] = strain 4*-AG100, acrAB+, read-out: MIC
# [11] = strain AG100, acrAB+, read-out: MIC
# [12] = strain AG112 (Mar mutant), acrAB+
# [13] = strain 1-AG112 (1′-AG112), ΔacrAB
# [14] = strain 2-AG100 (2°-AG100), ΔacrAB
# [15] = strain 2-AG112 (2′-AG112), ΔacrAB
# [16] = strain 3-AG112 (3′-AG112), ΔacrAB
smiles,measurement,setting,value
"CC1COc2c(N3CCN(C)CC3)c(F)cc3c(=O)c(C(=O)O)cn1c23 (stereo not drawn) [OFL, ofloxacin]",Enhancement of ofx resistance by in-vitro amplification,"[1]; AG102, three steps, 0.125 mg/l to 8 mg/l",64 fold
same,Ofx MIC,"[1]; AG102 series, 1st step mutant, with AcrAB",1.0 µg/mL
same,Enhancement of ofx resistance by in-vitro amplification,"[2]; AG100, four steps, 0.03 mg/l to 4 mg/l",128 fold
same,Ofx MIC,"[2]; AG100 series, 1st step mutant",0.25 µg/mL
same,Ofx MIC,"[2]; AG100 series, 2nd step mutant",1.0 µg/mL
same,Ofx MIC,"[2]; AG100 series, 3rd step mutant",2.0 µg/mL
same,Ofx MIC,"[2]; AG100 series, 4th step mutant",4.0 µg/mL
same,Ofx MIC,"[2]; AG100 series, parent",0.03 µg/mL
same,Ofx MIC,"[2]; AG102 series, 2nd step mutant",4.0 µg/mL
same,Ofx MIC,"[2]; AG102 series, 3rd step mutant",8.0 µg/mL
same,Ofx MIC,"[2]; AG102 series, parent (Mar mutant)",0.125 µg/mL
same,MIC,[2]; [4],0.25 µg/mL
same,MIC,[2]; [5],1 µg/mL
same,MIC,[2]; [6],1 µg/mL
same,MIC,[2]; [7],4 µg/mL
same,MIC,[2]; [8],2 µg/mL
same,MIC,[2]; [9],8 µg/mL
same,MIC,[2]; [10],4 µg/mL
same,MIC,[2]; [11],0.03 µg/mL
same,MIC,[2]; [12],0.125 µg/mL
same,Fold increase of OFL MIC,"[2]; strain 1-AG100, as compared to AG100 (wild-type)",8 fold
same,Fold increase of OFL MIC,"[2]; strain 1-AG112 (1′-AG112), as compared to AG100 (wild-type)",32 fold
same,Fold increase of OFL MIC,"[2]; strain 2-AG100 (2°-AG100), as compared to AG100 (wild-type)",32 fold
same,Fold increase of OFL MIC,"[2]; strain 2-AG112, as compared to AG100 (wild-type)",128 fold
same,Fold increase of OFL MIC,"[2]; strain 3*-AG100, as compared to AG100 (wild-type)",64 fold
same,Fold increase of OFL MIC,"[2]; strain 3-AG112, as compared to AG100 (wild-type)",256 fold
same,Fold increase of OFL MIC,"[2]; strain 4*-AG100, as compared to AG100 (wild-type)",128 fold
same,Fold increase of OFL MIC,"[2]; strain AG112, as compared to AG100 (wild-type)",4 fold
same,Increase of resistance to OFL by the first mutation step,[2]; {},8 fold
same,Ofx MIC,"[3]; AG100 series, 1st step mutant",0.06 µg/mL
same,Ofx MIC,"[3]; AG100 series, 2nd step mutant",0.06 µg/mL
same,Ofx MIC,"[3]; AG100 series, 3rd step mutant",0.06 µg/mL
same,Ofx MIC,"[3]; AG100 series, 4th step mutant",0.125 µg/mL
same,Ofx MIC,"[3]; AG100 series, parent",< 0.015 µg/mL
same,Ofx MIC,"[3]; AG102 series, 1st step mutant",0.06 µg/mL
same,Ofx MIC,"[3]; AG102 series, 2nd step mutant",0.06 µg/mL
same,Ofx MIC,"[3]; AG102 series, 3rd step mutant",0.06 µg/mL
same,Ofx MIC,"[3]; AG102 series, parent",< 0.015 µg/mL
same,MIC,"[3]; strain 1-AG100, ΔacrAB",0.06 µg/mL
same,MIC,[3]; [13],0.06 µg/mL
same,MIC,[3]; [14],0.06 µg/mL
same,MIC,[3]; [15],0.06 µg/mL
same,MIC,"[3]; strain 3*-AG100, ΔacrAB",0.06 µg/mL
same,MIC,[3]; [16],0.06 µg/mL
same,MIC,"[3]; strain 4*-AG100, ΔacrAB",0.125 µg/mL
same,MIC,"[3]; strain AG100, ΔacrAB",≤ 0.015 µg/mL
same,MIC,"[3]; strain AG112, ΔacrAB",≤ 0.015 µg/mL
"CN(C)[C@@H]1C(O)=C(C(N)=O)C(=O)[C@@]2(O)C(O)=C3C(=O)c4c(O)cccc4[C@@](C)(O)[C@H]3C[C@@H]12 [TET, tetracycline]",MIC,[2]; [4],2 µg/mL
same,MIC,[2]; [5],4 µg/mL
same,MIC,[2]; [6],2 µg/mL
same,MIC,[2]; [7],16 µg/mL
same,MIC,[2]; [8],8 µg/mL
same,MIC,[2]; [9],8 µg/mL
same,MIC,[2]; [10],8 µg/mL
same,MIC,[2]; [11],1 µg/mL
same,MIC,[2]; [12],4 µg/mL
same,MIC,"[3]; strain 1-AG100, ΔacrAB",1 µg/mL
same,MIC,[3]; [13],0.5 µg/mL
same,MIC,[3]; [14],0.5 µg/mL
same,MIC,[3]; [15],1 µg/mL
same,MIC,"[3]; strain 3*-AG100, ΔacrAB",1 µg/mL
same,MIC,[3]; [16],0.5 µg/mL
same,MIC,"[3]; strain 4*-AG100, ΔacrAB",1 µg/mL
same,MIC,"[3]; strain AG100, ΔacrAB",0.5 µg/mL
same,MIC,"[3]; strain AG112, ΔacrAB",1 µg/mL
"C[C@@H]1CN(c2c(F)c(N)c3c(=O)c(C(=O)O)cn(C4CC4)c3c2F)C[C@H](C)N1 [SPX, sparfloxacin]",MIC,[2]; [4],0.125 µg/mL
same,MIC,[2]; [5],0.25 µg/mL
same,MIC,[2]; [6],0.25 µg/mL
same,MIC,[2]; [7],1 µg/mL
same,MIC,[2]; [8],0.5 µg/mL
same,MIC,[2]; [9],2 µg/mL
same,MIC,[2]; [10],2 µg/mL
same,MIC,[2]; [11],≤ 0.015 µg/mL
same,MIC,[2]; [12],0.06 µg/mL
same,MIC,"[3]; all ΔacrAB mutants, below detection",< 0.015 µg/mL
same,MIC,"[3]; strain 1-AG100, ΔacrAB",≤ 0.015 µg/mL
same,MIC,[3]; [13],≤ 0.015 µg/mL
same,MIC,[3]; [14],≤ 0.015 µg/mL
same,MIC,[3]; [15],≤ 0.015 µg/mL
same,MIC,"[3]; strain 3*-AG100, ΔacrAB",≤ 0.015 µg/mL
same,MIC,[3]; [16],≤ 0.015 µg/mL
same,MIC,"[3]; strain 4*-AG100, ΔacrAB",≤ 0.015 µg/mL
same,MIC,"[3]; strain AG100, ΔacrAB",≤ 0.015 µg/mL
same,MIC,"[3]; strain AG112, ΔacrAB",≤ 0.015 µg/mL
Oc1cc(Cl)ccc1Oc1ccc(Cl)cc1Cl [triclosan],Reduction of resistance to triclosan,"E. coli; deletion of acrAB, all strains",10 fold
same,Increase of resistance to triclosan,E. coli; mutation in enoyl reductase (fabI),about 100 fold
same,Increase of resistance to triclosan,"E. coli; overexpression of acrAB, marA, or soxS",about two-fold

# — patent US8012711B2, “Methods of screening for compounds that reduce microbial resistance to fluoroquinolones” (priority 1999, dated 2011)
